Results taken from ChEMBL document CHEMBL1201862, “PubChem BioAssay data set” (2004).
Active and inactive are the calls of the source.

Tests used:
[1] = biological target: T1, Short transient receptor potential channel 4 (Mus musculus, UniProt Q9QUQ5); assay: mouse TRPC4 channel inhibitors, dose response, cell-based, HEK293 TRPC4/mu-opioid, Fluo-4 calcium (AID 434942); assay type: functional;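 further: potency of inhibitors blocking the TRPC4 calcium response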
T1 sequence (Q9QUQ5 whole entry): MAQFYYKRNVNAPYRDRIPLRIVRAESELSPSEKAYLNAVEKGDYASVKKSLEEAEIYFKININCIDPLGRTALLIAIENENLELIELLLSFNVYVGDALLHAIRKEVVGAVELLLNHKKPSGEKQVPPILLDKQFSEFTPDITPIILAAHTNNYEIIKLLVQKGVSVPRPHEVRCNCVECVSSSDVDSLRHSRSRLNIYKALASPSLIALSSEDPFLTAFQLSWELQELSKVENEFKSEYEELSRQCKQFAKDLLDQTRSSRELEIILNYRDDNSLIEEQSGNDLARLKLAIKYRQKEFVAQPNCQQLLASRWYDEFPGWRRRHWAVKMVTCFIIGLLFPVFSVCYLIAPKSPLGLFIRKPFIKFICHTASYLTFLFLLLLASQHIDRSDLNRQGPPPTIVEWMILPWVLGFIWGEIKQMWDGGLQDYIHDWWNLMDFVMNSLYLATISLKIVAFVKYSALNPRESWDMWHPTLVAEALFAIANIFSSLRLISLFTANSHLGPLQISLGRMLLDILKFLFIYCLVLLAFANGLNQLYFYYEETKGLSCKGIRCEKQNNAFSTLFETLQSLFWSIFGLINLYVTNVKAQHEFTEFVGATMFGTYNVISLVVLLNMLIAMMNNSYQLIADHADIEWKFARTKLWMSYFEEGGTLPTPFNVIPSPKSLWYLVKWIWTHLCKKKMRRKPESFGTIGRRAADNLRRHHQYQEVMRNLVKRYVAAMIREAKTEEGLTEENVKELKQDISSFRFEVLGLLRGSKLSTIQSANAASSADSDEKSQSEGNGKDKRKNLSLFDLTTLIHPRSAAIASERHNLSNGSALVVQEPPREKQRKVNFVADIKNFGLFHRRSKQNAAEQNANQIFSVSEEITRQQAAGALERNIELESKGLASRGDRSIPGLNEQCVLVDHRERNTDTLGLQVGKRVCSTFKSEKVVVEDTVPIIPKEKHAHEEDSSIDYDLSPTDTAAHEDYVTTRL

[2] = biological target: Peroxisome proliferator-activated receptor gamma/Nuclear receptor coactivator 3 (Homo sapiens, UniProt P37231); assay type: functional;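 further: agonist potency for raising coactivator recruitment to the receptor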
Peroxisome proliferator-activated receptor gamma/Nuclear receptor coactivator 3, sequence (P37231 whole entry): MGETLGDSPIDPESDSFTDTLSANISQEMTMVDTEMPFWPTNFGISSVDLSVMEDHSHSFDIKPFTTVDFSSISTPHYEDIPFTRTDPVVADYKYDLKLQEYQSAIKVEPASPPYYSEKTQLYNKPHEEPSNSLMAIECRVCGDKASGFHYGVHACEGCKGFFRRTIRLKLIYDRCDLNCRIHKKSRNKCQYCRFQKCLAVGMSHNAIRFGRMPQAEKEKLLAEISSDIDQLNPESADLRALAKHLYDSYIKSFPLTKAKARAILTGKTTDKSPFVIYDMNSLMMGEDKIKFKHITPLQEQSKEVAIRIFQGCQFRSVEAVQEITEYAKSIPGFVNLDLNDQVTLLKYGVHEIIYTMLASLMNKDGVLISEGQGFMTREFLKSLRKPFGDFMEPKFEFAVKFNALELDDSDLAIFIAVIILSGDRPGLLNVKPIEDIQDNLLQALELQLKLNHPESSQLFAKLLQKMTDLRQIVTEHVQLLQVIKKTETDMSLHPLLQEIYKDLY
Peroxisome proliferator-activated receptor gamma/Nuclear receptor coactivator 3, sequence (Q9Y6Q9 whole entry, further chain): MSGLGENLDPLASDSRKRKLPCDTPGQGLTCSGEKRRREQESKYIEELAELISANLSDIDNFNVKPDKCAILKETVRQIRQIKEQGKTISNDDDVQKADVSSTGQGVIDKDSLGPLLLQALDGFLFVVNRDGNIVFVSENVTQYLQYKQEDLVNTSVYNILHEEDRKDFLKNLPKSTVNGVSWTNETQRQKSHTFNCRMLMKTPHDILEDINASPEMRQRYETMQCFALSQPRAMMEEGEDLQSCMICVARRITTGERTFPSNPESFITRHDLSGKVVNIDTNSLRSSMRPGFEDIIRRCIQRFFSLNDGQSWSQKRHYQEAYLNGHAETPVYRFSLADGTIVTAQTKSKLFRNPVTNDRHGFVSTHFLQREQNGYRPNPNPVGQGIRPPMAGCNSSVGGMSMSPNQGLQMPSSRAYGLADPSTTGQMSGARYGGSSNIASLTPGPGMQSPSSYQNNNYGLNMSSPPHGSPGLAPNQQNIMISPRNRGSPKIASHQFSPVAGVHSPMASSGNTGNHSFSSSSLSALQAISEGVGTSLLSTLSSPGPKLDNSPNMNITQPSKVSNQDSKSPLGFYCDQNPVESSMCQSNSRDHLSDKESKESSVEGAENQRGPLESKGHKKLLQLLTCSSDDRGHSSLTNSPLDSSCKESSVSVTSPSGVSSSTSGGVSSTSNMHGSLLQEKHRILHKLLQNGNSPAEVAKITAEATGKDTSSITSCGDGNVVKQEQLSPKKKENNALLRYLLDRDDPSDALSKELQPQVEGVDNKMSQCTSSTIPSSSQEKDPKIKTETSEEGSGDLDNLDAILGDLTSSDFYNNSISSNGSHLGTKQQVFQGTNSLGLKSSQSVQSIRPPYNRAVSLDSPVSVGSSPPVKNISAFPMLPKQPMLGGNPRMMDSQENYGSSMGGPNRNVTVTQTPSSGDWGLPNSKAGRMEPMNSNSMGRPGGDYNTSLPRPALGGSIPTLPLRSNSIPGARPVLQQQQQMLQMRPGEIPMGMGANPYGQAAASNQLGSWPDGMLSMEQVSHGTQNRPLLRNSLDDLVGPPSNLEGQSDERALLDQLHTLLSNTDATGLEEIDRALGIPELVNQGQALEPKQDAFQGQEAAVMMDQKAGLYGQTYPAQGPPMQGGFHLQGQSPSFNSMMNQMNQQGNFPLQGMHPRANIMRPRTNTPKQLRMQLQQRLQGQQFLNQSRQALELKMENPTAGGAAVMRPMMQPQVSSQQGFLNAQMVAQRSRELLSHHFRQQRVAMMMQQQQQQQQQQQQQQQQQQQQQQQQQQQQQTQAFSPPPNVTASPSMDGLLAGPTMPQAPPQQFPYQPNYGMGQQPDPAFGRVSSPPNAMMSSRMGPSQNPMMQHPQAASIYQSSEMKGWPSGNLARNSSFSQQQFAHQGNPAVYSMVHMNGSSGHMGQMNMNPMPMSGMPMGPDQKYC

[3] = biological target: Peroxisome proliferator-activated receptor gamma/Nuclear receptor coactivator 1 (Homo sapiens, UniProt P37231); assay type: functional;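 further: agonist potency as compounds enhance coactivator SRC-1 recruitment to PPARgamma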
[4] = biological target: Peroxisome proliferator-activated receptor gamma/Nuclear receptor coactivator 2 (Homo sapiens, UniProt P37231); assay type: functional;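 further: agonist potency for raising coactivator recruitment to the receptor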
[5] = biological target: T2, Calpain-2 catalytic subunit (Sus scrofa, UniProt P43367); assay: pig calpain II inhibitor potency, dose response, biochemical, fluorogenic peptide substrate (AID 1420); assay type: functional
T2 sequence (P43367 whole entry): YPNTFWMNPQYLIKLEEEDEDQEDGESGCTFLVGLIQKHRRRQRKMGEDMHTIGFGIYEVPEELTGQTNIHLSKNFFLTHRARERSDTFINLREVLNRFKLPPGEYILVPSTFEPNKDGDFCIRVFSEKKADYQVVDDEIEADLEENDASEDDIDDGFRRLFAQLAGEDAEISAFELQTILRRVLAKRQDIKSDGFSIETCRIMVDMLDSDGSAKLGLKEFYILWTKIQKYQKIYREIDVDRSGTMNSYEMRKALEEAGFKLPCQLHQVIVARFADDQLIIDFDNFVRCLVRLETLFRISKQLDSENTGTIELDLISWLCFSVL

[6] = A cytotoxicity screen of small molecule inhibitors of the PhoP region in Salmonella typhi identified in the primary screen. [Related pubchem assays: 1850, 1864, 1985 ]; assay type: functional
Cytochrome P450 3A4 = Cytochrome P450 3A4 (Homo sapiens, UniProt P08684);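 further: CYP3A4 tested as one member of a cytochrome P450 panel screen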
Cytochrome P450 3A4, sequence (P08684 whole entry): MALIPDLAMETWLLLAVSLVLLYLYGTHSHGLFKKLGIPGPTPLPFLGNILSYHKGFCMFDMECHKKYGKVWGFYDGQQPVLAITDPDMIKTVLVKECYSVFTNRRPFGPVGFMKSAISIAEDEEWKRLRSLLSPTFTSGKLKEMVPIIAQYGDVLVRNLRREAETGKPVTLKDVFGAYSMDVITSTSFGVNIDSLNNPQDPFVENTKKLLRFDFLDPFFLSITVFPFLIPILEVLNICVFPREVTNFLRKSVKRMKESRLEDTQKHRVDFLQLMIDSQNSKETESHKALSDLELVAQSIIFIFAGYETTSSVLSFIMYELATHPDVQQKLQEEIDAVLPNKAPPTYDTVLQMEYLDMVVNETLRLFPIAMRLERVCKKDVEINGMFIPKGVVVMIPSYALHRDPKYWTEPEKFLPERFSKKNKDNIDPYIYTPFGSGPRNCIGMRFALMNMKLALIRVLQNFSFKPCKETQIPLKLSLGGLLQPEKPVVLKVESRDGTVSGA

[7] = cytotoxicity toward NIH3T3 fibroblasts, dose response, counter-screen, cell-based, ATP luminescence, mouse fibroblasts (AID 2010); assay type: functional;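 further: cells exposed to compound for about 90 hours before reading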
[8] = cytotoxicity in HEK-293T cells, dose response, cytotoxicity control for BCR NF-kB inhibitor project, luminescence, B-cell screen hits (AID 489021); assay type: functional, cell-based;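 further: HEK-293T cells carrying an NF-kB luciferase reporter; cells exposed to compound for about 14 hours before viability readout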
[9] = inhibitors of intracellular T. cruzi replication, confirmation, NIH3T3 host cells, beta-gal luminescence (AID 2044); assay type: functional, cell-based;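 further: intracellular parasites grown in NIH/3T3 mouse fibroblasts as host cells; luminescent beta-galactosidase reporter signal from transgenic T. cruzi replicating inside host cells; inhibitors lower the luminescence signal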
Cytochrome P450 2C19 = Cytochrome P450 2C19 (Homo sapiens, UniProt P33261); assay: Cytochrome panel assay with activity outcomes. Panel member name: p450-cyp2c19 Compounds with AC50 equal or less than 10 uM are considered active; assay type: functional; settings: read-out: AC50
Cytochrome P450 2C19, sequence (P33261 whole entry): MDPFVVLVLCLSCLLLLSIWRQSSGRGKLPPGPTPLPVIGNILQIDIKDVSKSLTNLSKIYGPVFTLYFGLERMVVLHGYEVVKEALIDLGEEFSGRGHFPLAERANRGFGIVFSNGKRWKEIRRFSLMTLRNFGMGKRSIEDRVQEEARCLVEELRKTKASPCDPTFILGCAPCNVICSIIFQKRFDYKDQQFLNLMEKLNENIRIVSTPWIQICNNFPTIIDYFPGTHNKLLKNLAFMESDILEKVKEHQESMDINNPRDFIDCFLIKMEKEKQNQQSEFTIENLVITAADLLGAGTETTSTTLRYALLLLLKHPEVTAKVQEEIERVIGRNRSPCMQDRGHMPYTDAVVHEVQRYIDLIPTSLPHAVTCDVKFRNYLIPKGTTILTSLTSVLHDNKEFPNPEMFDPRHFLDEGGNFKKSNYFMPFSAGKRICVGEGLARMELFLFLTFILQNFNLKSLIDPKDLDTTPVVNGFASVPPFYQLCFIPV

BJ [10] = assay: cytotoxicity toward BJ-TERT-LT-ST fibroblasts, dose response, cell-based, RAS-independent, luminescence (AID 1935); assay type: functional; settings: Homo sapiens;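 further: BJ fibroblasts immortalized with TERT plus LT and ST oncogenes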
[11] = cytotoxicity in HEK-293T cells, dose response, cytotoxicity control for TCR NF-kB inhibitor project, luminescence, T-cell screen hits (AID 489026); assay type: functional, cell-based;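 further: cells exposed to compound about 14 hours before the viability readout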
[12] = cytotoxicity toward DRD oncogenic fibroblasts, dose response, cell-based, non-viral oncogenic, luminescence (AID 1934); assay type: functional; settings: Homo sapiens
BJ [13] = assay: cytotoxicity toward BJ-TERT fibroblasts, dose response, cell-based, RAS-independent, luminescence (AID 1933); assay type: functional; settings: Homo sapiens
BJ [14] = assay: cells; assay type: functional, cell-based; settings: Homo sapiens
[15] = test system: Streptococcus sp. 'group A'; assay: growth inhibition of control SK(-) GAS strain, dose response, counter-screen for streptokinase expression inhibitor project, luminescence, kanamycin, BacTiterGlo, confirmation (AID 1900); assay type: functional, organism-based
[16] = biological target: Nucleotide-binding oligomerization domain-containing protein 2 (Homo sapiens, UniProt Q9HC29); assay: NOD2 signaling inhibitors, cell-based, luminescence, uHTS, HEK293 (AID 1566); assay type: functional
Nucleotide-binding oligomerization domain-containing protein 2, sequence (Q9HC29 whole entry, the tested form may be a part): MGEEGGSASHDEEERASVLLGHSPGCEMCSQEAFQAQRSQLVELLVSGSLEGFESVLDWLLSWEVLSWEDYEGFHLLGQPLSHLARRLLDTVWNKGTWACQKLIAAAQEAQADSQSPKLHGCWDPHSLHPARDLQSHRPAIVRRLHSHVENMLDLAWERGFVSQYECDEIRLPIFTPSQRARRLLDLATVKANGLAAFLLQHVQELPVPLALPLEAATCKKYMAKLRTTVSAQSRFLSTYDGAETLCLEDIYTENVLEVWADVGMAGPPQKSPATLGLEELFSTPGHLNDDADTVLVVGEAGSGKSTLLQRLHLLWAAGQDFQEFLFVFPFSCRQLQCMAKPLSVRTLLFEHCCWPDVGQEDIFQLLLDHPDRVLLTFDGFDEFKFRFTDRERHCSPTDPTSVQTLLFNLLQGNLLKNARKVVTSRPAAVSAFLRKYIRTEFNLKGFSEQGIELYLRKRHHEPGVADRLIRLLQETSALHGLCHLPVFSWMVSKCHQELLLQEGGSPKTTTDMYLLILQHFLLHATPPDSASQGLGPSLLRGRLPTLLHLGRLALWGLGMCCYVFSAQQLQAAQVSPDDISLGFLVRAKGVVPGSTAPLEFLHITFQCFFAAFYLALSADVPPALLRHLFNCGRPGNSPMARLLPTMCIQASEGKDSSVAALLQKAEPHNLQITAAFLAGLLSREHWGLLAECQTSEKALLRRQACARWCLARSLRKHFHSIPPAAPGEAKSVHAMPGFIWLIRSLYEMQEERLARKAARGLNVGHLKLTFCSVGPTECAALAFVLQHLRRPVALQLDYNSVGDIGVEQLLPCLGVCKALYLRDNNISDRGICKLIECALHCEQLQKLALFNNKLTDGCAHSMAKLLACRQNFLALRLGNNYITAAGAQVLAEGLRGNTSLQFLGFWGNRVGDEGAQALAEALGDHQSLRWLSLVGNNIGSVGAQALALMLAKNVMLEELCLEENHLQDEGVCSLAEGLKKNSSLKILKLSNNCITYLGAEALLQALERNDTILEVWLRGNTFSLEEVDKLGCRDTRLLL

HEK293 [17] = assay: cells; assay type: functional, cell-based; settings: Homo sapiens
HEK293 [18] = assay: cells; assay type: functional, cell-based; settings: Homo sapiens; remark: listed apart in the source
Streptokinase A = biological target: T3, Streptokinase A (Streptococcus pyogenes serotype M1, UniProt P10520); assay: S. pyogenes streptokinase expression inhibitors, potency, dose response, plasminogen activation absorbance, OD405 (AID 1914); assay type: functional, Streptococcus pyogenes M1 GAS;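 further: secreted streptokinase activity via plasminogen activation per viability signal from cell pellet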
T3 sequence (P10520 whole entry): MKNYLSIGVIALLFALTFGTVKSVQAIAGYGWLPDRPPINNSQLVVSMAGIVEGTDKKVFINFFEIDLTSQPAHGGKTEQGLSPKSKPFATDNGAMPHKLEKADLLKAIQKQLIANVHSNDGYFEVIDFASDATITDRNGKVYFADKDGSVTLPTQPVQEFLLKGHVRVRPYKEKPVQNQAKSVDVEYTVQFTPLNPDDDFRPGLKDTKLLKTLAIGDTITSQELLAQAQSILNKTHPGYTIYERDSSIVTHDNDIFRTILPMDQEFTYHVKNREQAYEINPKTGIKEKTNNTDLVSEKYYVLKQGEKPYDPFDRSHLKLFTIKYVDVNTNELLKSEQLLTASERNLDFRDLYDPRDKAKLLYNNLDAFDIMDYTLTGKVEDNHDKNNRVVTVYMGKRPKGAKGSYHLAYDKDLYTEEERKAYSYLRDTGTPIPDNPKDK

HEK293 [19] = assay: cells; assay type: functional, cell-based; settings: Homo sapiens; remark: listed apart in the source
HEK293 [20] = assay: NOD2 signaling inhibitors in MDP-stimulated cells, cell-based, uHTS, luminescence (AID 2001); assay type: functional; settings: Homo sapiens
HEK293 [21] = assay: NOD1 signaling inhibitors, primary screen, cell-based, luminescence, uHTS (AID 1578); assay type: functional; settings: Homo sapiens
Streptococcus = assay: Group A Streptococcus viability loss, dose response, counter-screen for streptokinase expression inhibitor project, luminescence, BacTiterGlo (AID 1915); assay type: functional, organism-based;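 further: potency for reduction of bacterial viability or growth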
[22] = THP-1 cell cytotoxicity, dose response, cytotoxicity control for Vif-APOBEC3G degradation inhibitor project, THP-1 cells (AID 1117359); assay type: functional; settings: Human immunodeficiency virus 1, THP-1
[23] = microbe, parasite or virus in culture; assay type: functional; settings: Mycobacterium tuberculosis
[24] = Luminescence Cell-Based Dose Response HTS to Identify Inhibitors of 5'UTR Stem-Loop Driven Prion Protein mRNA Translation in H4 Neuroglioblastoma Cells. [Related pubchem assays: 1827 (Project Summary), 1813 (Primary HTS)]; assay type: functional
[25] = inhibitors of firefly luciferase expression or activity, dose response, H4 neuroglioma cells, luminescence (AID 1990); assay type: functional, cell-based
[26] = inhibitors of SNCA 5'UTR-driven reporter translation, confirmation, H4 neuroglioma cells, luminescence (AID 1988); assay type: functional, cell-based
[27] = biological target: T4, Rac GTPase-activating protein 1 (Homo sapiens, UniProt Q9H0H5); assay: MgcRacGAP GTPase-activating activity inhibitors, confirmation, biochemical, ADP Hunter fluorescence, primary and confirmatory (AID 624330); assay type: functional
T4 sequence (Q9H0H5 whole entry): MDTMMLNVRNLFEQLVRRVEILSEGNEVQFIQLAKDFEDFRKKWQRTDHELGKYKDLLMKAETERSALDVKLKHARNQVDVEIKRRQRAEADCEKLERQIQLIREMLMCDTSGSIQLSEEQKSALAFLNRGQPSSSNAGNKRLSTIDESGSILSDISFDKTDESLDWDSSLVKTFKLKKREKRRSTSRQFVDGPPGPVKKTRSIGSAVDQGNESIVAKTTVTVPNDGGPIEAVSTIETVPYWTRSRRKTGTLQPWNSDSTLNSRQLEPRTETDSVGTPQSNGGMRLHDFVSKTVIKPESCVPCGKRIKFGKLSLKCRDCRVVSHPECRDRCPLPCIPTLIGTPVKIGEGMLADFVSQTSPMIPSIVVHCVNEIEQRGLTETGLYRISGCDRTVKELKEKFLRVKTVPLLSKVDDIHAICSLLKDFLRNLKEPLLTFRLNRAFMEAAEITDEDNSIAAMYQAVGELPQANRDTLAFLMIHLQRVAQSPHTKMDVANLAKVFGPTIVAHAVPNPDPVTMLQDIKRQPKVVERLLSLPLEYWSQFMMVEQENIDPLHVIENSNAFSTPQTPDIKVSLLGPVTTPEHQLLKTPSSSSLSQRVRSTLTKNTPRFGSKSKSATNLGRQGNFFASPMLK

SMILES: S=C(Nc1ccccc1)Nc1cc(Cl)ccc1Oc1ccccc1
- EC50 [1]: 4.73 µM (active)

SMILES: CCCCC(CC)c1nnc(NC(=O)c2cccs2)s1 (stereo not given)
- EC50 [2]: > 79.4 µM (not active)
- EC50 [3]: > 79.4 µM (not active)
- EC50 [1]: 5.31 µM (active)
- EC50 [4]: > 79.4 µM (not active)
- IC50 [5]: 8.06 µM (not active)

SMILES: COC(=O)c1sccc1N=C(S)NCc1ccc(Cl)cc1
- EC50 [6]: > 50 µM (active)

SMILES: CCOCCCNc1ccc(N2C(=O)C3CCCCC3C2=O)cc1[N+](=O)[O-] (stereo not given)
- IC50 [5]: 9.18 µM (active)

SMILES: Cn1/c(=N\C(=O)CCl)sc2ccccc21
- AC50 (Cytochrome P450 3A4): 15.8 µM (inconclusive)
- EC50 [7]: < 6 µM (inconclusive)
- IC50 [8]: > 80 µM (inactive)
- EC50 [9]: 0.973 µM (active)
- AC50 (Cytochrome P450 2C19): 20 µM (inconclusive)

SMILES: CC(=O)Nc1ccc(S(=O)(=O)N2c3ccc(F)cc3CCC2C)cc1 (stereo not given)
- EC50 (BJ [10]): 16 µM (active)
- IC50 [11]: > 80 µM (inactive)
- EC50 [12]: 16 µM (active)
- EC50 (BJ [13]): 13.5 µM (active)
- EC50 (BJ [14]): 92.3 µM (active)

SMILES: CCCc1nc(SCC(=O)c2ccccc2)c2c(=O)n(C)c(=O)n(C)c2n1
- IC50 [5]: 7.89 µM (active)

SMILES: CN(C)C=O.N#Cc1ccc(Cl)cc1NC(=O)CSc1nc(O)c2c(C(F)(F)F)cc(-c3cccs3)nc2n1
- EC50 [15]: 7.34 µM (active)
- EC50 [16]: 8.42 µM (active)
- IC50 (HEK293 [17]): 9.55 µM (active)
- IC50 (HEK293 [18]): > 20 µM (inactive)
- EC50 (Streptokinase A): > 150 µM (not active)
- IC50 (HEK293 [19]): > 20 µM (inactive)
- IC50 (HEK293 [20]): 6.22 µM (inactive)
- EC50 (HEK293 [21]): 5.63 µM (active)
- EC50 (Streptococcus): > 150 µM (not active)

SMILES: N=c1sc2c(n1Cc1ccccc1)CCCC2
- EC50 [6]: > 50 µM (active)

SMILES: O=C(COc1ccc(F)cc1)c1c(O)cc(O)cc1O
- EC50 [1]: 3.35 µM (active)

SMILES: CCC(=O)N(Cc1cc2cc(OC)ccc2nc1O)c1ccc(C)cc1C
- EC50 [6]: > 50 µM (active)

SMILES: C=CCSc1nnc2n(-c3ccccc3OC)c(=O)c3c4c(sc3n12)CCC4
- EC50 [1]: 4.73 µM (active)

SMILES: CC(CCc1ccccc1)NC(=O)COC(=O)c1ccc(NC(=O)CC#N)cc1 (stereo not given)
- EC50 (BJ [10]): > 150 µM (inconclusive)
- EC50 [12]: > 150 µM (not active)
- EC50 (BJ [13]): > 150 µM (not active)
- EC50 (BJ [14]): > 150 µM (not active)

SMILES: Cc1c(CN2CCC(CO)(Cc3cccc(C(F)(F)F)c3)CC2)c2ccccc2n1C
- EC50 [7]: > 60 µM (not active)
- CC50 [22]: 9.2 µM (active)
- CC50 [23]: 18.1 µM (active)
- EC50 [9]: 0.969 µM (active)

SMILES: N=c1ccn2c(n1)O[C@H]1[C@H](O)[C@@H](CO)O[C@H]12
- IC50 [8]: > 80 µM (inactive)

SMILES: Cc1cc(C)c(NC(=O)COC(=O)Cc2ccsc2)c(C)c1
- IC50 [5]: > 50 µM (not active)

SMILES: Cc1ccc(/C=C2\SC(=S)N(CCCC(=O)Nc3cc(C)on3)C2=O)cc1
- IC50 [8]: > 80 µM (inactive)
- EC50 [24]: 51.7 µM (active)
- EC50 [25]: 15.3 µM (active)
- EC50 [26]: 14.6 µM (active)

SMILES: Cc1nc2nc(COc3ccccc3)nn2c(C)c1Cl
- EC50 [6]: > 50 µM (active)

SMILES: CNC(=O)CSc1nc2nn(-c3ccccc3)c(=O)c-2c2n1CCCCC2
- IC50 [8]: > 80 µM (inactive)

SMILES: COc1ccc2cc(C(=O)Nc3ccc(O)cc3)sc(=O)c2c1OC
- CC50 [22]: 25 µM (active)
- IC50 [27]: 24.8 µM (active)
